The values that follow come from US9067871B2, “Aminotetraline derivatives, pharmaceutical compositions containing them, and their use in therapy” (ABBVIE DEUTSCHLAND GMBH & CO KG, priority 2009, dated 2015).

Where a name gives a salt, the structure may show the parent alone. Some results are limits rather than exact numbers.

Chain of human GlyT1c transporter (P48067 whole entry): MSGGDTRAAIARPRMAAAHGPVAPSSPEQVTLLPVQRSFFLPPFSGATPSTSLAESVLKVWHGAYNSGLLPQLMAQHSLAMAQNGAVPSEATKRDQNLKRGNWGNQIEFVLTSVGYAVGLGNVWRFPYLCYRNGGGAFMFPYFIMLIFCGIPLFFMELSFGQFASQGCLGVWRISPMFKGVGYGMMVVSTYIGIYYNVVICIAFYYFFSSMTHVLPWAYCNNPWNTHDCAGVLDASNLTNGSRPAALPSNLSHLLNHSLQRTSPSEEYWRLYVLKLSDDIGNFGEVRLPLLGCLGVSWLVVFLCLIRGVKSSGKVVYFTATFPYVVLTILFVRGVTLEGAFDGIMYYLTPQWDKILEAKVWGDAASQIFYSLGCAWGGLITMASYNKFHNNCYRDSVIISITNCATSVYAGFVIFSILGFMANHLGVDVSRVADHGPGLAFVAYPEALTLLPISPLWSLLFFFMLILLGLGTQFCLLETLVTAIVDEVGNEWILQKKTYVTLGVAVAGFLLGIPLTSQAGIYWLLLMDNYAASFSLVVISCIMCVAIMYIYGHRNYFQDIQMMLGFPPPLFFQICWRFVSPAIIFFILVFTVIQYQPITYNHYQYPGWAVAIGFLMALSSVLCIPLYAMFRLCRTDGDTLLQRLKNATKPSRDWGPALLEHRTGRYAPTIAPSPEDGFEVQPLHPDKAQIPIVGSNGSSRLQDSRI

For the first assay, the target named is human GlyT1c transporter (Homo sapiens (Human), UniProt P48067). The experiment in a line: Radioligand binding assay using recombinant CHO cell membranes expressing human GlyT1. The following applies: human GlyT1c-expressing CHO cell membranes; hydrochloride; read-out: radioligand binding Kiapp. An excerpt:
2. Radioligand binding assays using recombinant CHO cell membranes expressing human GlyT1: […]
On to `Cn1cnc(S(=O)(=O)NCCOc2ccc3c(c2)C(Cc2ccccc2)C(N2CCCC2)CC3)c1` (single isomer, unassigned; (+)) [Example 118, (+)-N-(2-(8-benzyl-7-(pyrrolidin-1-yl)-5,6,7,8-tetrahydronaphthalen-2-yloxy)ethyl)-1-methyl-1H-imidazole-4-sulfonamide hydrochloride], for which the Ki was at most 100 nM.
Turning to `Cn1cnc(S(=O)(=O)NCCOc2ccc3c(c2)C(Cc2ccccc2)C(N2CCCC2)CC3)c1` (single isomer, unassigned; (-)) [Example 117, (−)-N-(2-(8-benzyl-7-(pyrrolidin-1-yl)-5,6,7,8-tetrahydronaphthalen-2-yloxy)ethyl)-1-methyl-1H-imidazole-4-sulfonamide hydrochloride], the Ki is at most 10 nM.

The assay is the same for the next values; noted with them: human GlyT1c-expressing CHO cell membranes; read-out: radioligand binding Kiapp.
For the molecule `O=S(=O)(CC1CC1)NCCOc1ccc2c(c1)C(Cc1ccccc1)C(N1CCC1)CC2` (single isomer, unassigned; (-)) [Example 143, (−)-N-(2-(7-(azetidin-1-yl)-8-benzyl-5,6,7,8-tetrahydronaphthalen-2-yloxy)ethyl)-1-cyclopropylmethanesulfonamide], the Ki was at most 10 nM.
As for `CNC1CCc2ccc(CNS(=O)(=O)C3CCC3)cc2C1Cc1ccccc1` (single isomer, unassigned; enantiomer 1) [Example 193, Enantiomer 1 of N-{[8-benzyl-7-(methylamino)-5,6,7,8-tetrahydronaphthalen-2-yl]methyl}cyclobutanesulfonamide hydrochloride], the Ki is at most 10 nM.
With `Cn1cnc(S(=O)(=O)NCCOc2ccc3c(c2)C(Cc2ccccc2)C(N)CC3)c1` (single isomer, unassigned; enantiomer 1) [Example 238, Enantiomer 1 of N-(2-{[7-amino-8-benzyl-5,6,7,8-tetrahydronaphthalen-2-yl]oxy}ethyl)-1-methyl-1H-imidazole-4-sulfonamide hydrochloride], the Ki is at most 10 nM.
As to `CNC1CCc2ccc(OCCNS(=O)(=O)CC3CC3)cc2C1Cc1cccc(F)c1` (single isomer, unassigned; enantiomer 1) [Example 240, Enantiomer 1 of 1-cyclopropyl-N-(2-{[8-(3-fluorobenzyl)-7-(methylamino)-5,6,7,8-tetrahydronaphthalen-2-yl]oxy}ethyl)methanesulfonamide hydrochloride], the Ki was at most 10 nM.
For `CNC1CCc2ccc(OCCNS(=O)(=O)c3ccn(C)c3)cc2C1Cc1cc(F)cc(F)c1` (single isomer, unassigned; enantiomer 1) [Example 241, Enantiomer 1 of N-(2-{[8-(3,5-difluorobenzyl)-7-(methylamino)-5,6,7,8-tetrahydronaphthalen-2-yl]oxy}ethyl)-1-methyl-1H-pyrrole-3-sulfonamide hydrochloride], the Ki is at most 100 nM.
Take `CNC1CCc2ccc(OCCNS(=O)(=O)CC3CC3)cc2C1Cc1cc(F)cc(F)c1` (single isomer, unassigned; enantiomer 1) [Example 245, Enantiomer 1 of 1-cyclopropyl-N-(2-{[8-(3,5-difluorobenzyl)-7-(methylamino)-5,6,7,8-tetrahydronaphthalen-2-yl]oxy}ethyl)methanesulfonamide hydrochloride]: the Ki was at most 1000 nM.
Same read-out and setting: for `Cn1cnc(S(=O)(=O)NCc2ccc3c(c2)C(Cc2ccccc2)C(N2CCC2)CC3)c1` (single isomer, unassigned; enantiomer 1) [Example 252, Enantiomer 1 of N-{[7-(azetidin-1-yl)-8-benzyl-5,6,7,8-tetrahydronaphthalen-2-yl]methyl}-1-methyl-1H-imidazole-4-sulfonamide] the value was at most 10 nM; for `O=S(=O)(NCc1ccc2c(c1)C(Cc1ccccc1)C(N1CCC1)CC2)c1ccccn1` (single isomer, unassigned; enantiomer 1) [Example 253, Enantiomer 1 of N-{[7-(azetidin-1-yl)-8-benzyl-5,6,7,8-tetrahydronaphthalen-2-yl]methyl}pyridine-2-sulfonamide], at most 1000 nM; for `Cn1cc(S(=O)(=O)NCc2ccc3c(c2)C(Cc2ccccc2)C(N2CCC2)CC3)cn1` (single isomer, unassigned; enantiomer 1) [Example 254, Enantiomer 1 of N-{[7-(azetidin-1-yl)-8-benzyl-5,6,7,8-tetrahydronaphthalen-2-yl]methyl}-1-methyl-1H-pyrazole-4-sulfonamide], at most 10 nM.
Same read-out and setting: for `O=S(=O)(NCc1ccc2c(c1)C(Cc1ccccc1)C(N1CCC1)CC2)c1cccs1` (single isomer, unassigned; enantiomer 1) [Example 255, Enantiomer 1 of N-{[7-(azetidin-1-yl)-8-benzyl-5,6,7,8-tetrahydronaphthalen-2-yl]methyl}thiophene-2-sulfonamide] the value was at most 1000 nM.
For `CNC1CCc2ccc(OCCNS(=O)(=O)CC3CC3)cc2C1Cc1cccc(F)c1` (single isomer, unassigned; enantiomer 2) [Example 239, Enantiomer 2 of C-cyclopropyl-N-{2-[8-(3-fluoro-benzyl)-7-methylamino-5,6,7,8-tetrahydronaphthalen-2-yloxy]-ethyl}-methanesulfonamide hydrochloride], the Ki is at most 1000 nM.
Consider `CNC1CCc2ccc(OCCNS(=O)(=O)c3ccn(C)c3)cc2C1Cc1cc(F)cc(F)c1` (single isomer, unassigned; enantiomer 2) [Example 242, Enantiomer 2 of N-(2-{[8-(3,5-difluorobenzyl)-7-(methylamino)-5,6,7,8-tetrahydronaphthalen-2-yl]oxy}ethyl)-1-methyl-1H-pyrrole-3-sulfonamide hydrochloride], for which the Ki is at most 10 nM.
Turning to `CNC1CCc2ccc(OCCNS(=O)(=O)CC3CC3)cc2C1Cc1cc(F)cc(F)c1` (single isomer, unassigned; enantiomer 2) [Example 244, Enantiomer 2 of 1-cyclopropyl-N-(2-{[8-(3,5-difluorobenzyl)-7-(methylamino)-5,6,7,8-tetrahydronaphthalen-2-yl]oxy}ethylmethanesulfonamide hydrochloride], the Ki was at most 10 nM.
On to `NC1CCc2ccc(OCCNS(=O)(=O)C3CCCCC3)cc2C1Cc1ccc(Cl)c(Cl)c1` (centres unmarked) [Example 85, Cyclohexanesulfonic acid {2-[7-amino-8-(3,4-dichloro-benzyl)-5,6,7,8-tetrahydro-naphthalen-2-yloxy]-ethyl}-amide hydrochloride], for which the Ki is at most 1000 nM.
Take `C[Si](C)(C)CCS(=O)(=O)NCCOc1ccc2c(c1)C(Cc1ccc(Cl)c(Cl)c1)C(N)CC2` (centres unmarked) [Example 86, 2-Trimethylsilanyl-ethanesulfonic acid {2-[7-amino-8-(3,4-dichloro-benzyl)-5,6,7,8-tetrahydro-naphthalen-2-yloxy]-ethyl}-amide hydrochloride]: the Ki is at most 10000 nM.
On to `Cc1cc(CS(=O)(=O)NCCOc2ccc3c(c2)C(Cc2ccc(Cl)c(Cl)c2)C(N)CC3)no1` (centres unmarked) [Example 87, N-{2-[7-Amino-8-(3,4-dichloro-benzyl)-5,6,7,8-tetrahydro-naphthalen-2-yloxy]-ethyl}-C-(5-methyl-isoxazol-3-yl)-methanesulfonamide hydrochloride], for which the Ki is at most 10000 nM.
The same measure, in the same setting: for `O=S(=O)(NCCOc1ccc2c(c1)C(Cc1ccc(Cl)c(Cl)c1)C(N1CCCC1)CC2)C1CCC1` (centres unmarked) [Example 88, Cyclobutanesulfonic acid {2-[8-(3,4-dichloro-benzyl)-7-pyrrolidin-1-yl-5,6,7,8-tetrahydronaphthalen-2-yloxy]-ethyl}-amide hydrochloride] the value was at most 100 nM; for `CN(CCOc1ccc2c(c1)C(Cc1ccc(Cl)c(Cl)c1)C(N1CCCC1)CC2)S(=O)(=O)c1cnn(C)c1` (centres unmarked) [Example 89, 1-Methyl-1H-pyrazole-4-sulfonic acid {2-[8-(3,4-dichloro-benzyl)-7-pyrrolidin-1-yl-5,6,7,8-tetrahydro-naphthalen-2-yloxy]-ethyl}-methyl-amide hydrochloride], at most 100 nM; for `CCCCS(=O)(=O)NCCOc1ccc2c(c1)C(Cc1ccc(Cl)c(Cl)c1)C(N)CC2` (centres unmarked) [Example 90, Butane-1-sulfonic acid {2-[7-amino-8-(3,4-dichloro-benzyl)-5,6,7,8-tetrahydro-naphthalen-2-yloxy]-ethyl}-amide hydrochloride], at most 1000 nM.
Still for that read-out and setting: for `CC(C)S(=O)(=O)NCCOc1ccc2c(c1)C(Cc1ccc(Cl)c(Cl)c1)C(N)CC2` (centres unmarked) [Example 91, Propane-2-sulfonic acid {2-[7-amino-8-(3,4-dichloro-benzyl)-5,6,7,8-tetrahydronaphthalen-2-yloxy]-ethyl}-amide hydrochloride] the value was at most 100 nM.
With `CCOCCS(=O)(=O)NCCOc1ccc2c(c1)C(Cc1ccc(Cl)c(Cl)c1)C(N)CC2` (centres unmarked) [Example 93, 2-Ethoxy-ethanesulfonic acid {2-[7-amino-8-(3,4-dichloro-benzyl)-5,6,7,8-tetrahydronaphthalen-2-yloxy]-ethyl}-amide hydrochloride], the Ki is at most 1000 nM.
Regarding `CN(CCOc1ccc2c(c1)C(Cc1ccc(Cl)c(Cl)c1)C(N1CCCC1)CC2)S(=O)(=O)C1CCC1` (centres unmarked) [Example 94, Cyclobutanesulfonic acid {2-[8-(3,4-dichloro-benzyl)-7-pyrrolidin-1-yl-5,6,7,8-tetrahydronaphthalen-2-yloxy]-ethyl}-methyl-amide hydrochloride], the Ki is at most 100 nM.
Take `NC1CCc2ccc(OCCNS(=O)(=O)CC3CC3)cc2C1Cc1ccc(Cl)c(Cl)c1` (centres unmarked) [Example 95, N-{2-[7-Amino-8-(3,4-dichloro-benzyl)-5,6,7,8-tetrahydro-naphthalen-2-yloxy]-ethyl}-C-cyclopropyl-methanesulfonamide hydrochloride]: the Ki was at most 10 nM.

Still in this assay, the particulars now being: human GlyT1c-expressing CHO cell membranes; succinate; read-out: radioligand binding Kiapp.
On to `O=S(=O)(CC1CC1)NCCOc1ccc2c(c1)C(Cc1ccccc1)C(N1CCC1)CC2` (single isomer, unassigned; (+)) [Example 144, (+)-N-(2-(7-(azetidin-1-yl)-8-benzyl-5,6,7,8-tetrahydronaphthalen-2-yloxy)ethyl)-1-cyclopropylmethanesulfonamide succinate], for which the Ki is at most 1000 nM.
